The record followed here is paper PMC10301603, “Potent and Selective Benzothiazole-Based Antimitotics with Improved Water Solubility: Design, Synthesis, and Evaluation as Novel Anticancer Agents” (Pharmaceutics, 2023).

The IC50 is the midpoint of a concentration-inhibition curve. In general, solubility refers to the concentration that dissolves in the medium under given conditions. The low end stands for a poorly soluble substance, the high end for a readily soluble substance.

In one series the test system is HEK-293 cells. The series can be described thus: Cell growth inhibition assay (MTT), non-tumorigenic cells. Type of series: cell-based, human. The following applies: Homo sapiens, HEK293, 72 h after drug exposure, non-tumorigenic cell line. On the procedure:
(§1) The cell lines were obtained from ATTC (Manassas, VA, USA). HeLa (human cervix epithelioid carcinoma), MCF7 (human breast adenocarcinoma), HepG2 (human hepatocellular carcinoma), U87 MG (human glioblastoma), T98G (human glioblastoma), GL261 (murine glioma), LNCaP (human prostate cancer), PC-3 (human prostate cancer), and HEK-293 (human embryonic kidney) were grown in Dulbecco’s modified Eagle’s medium (DMEM, Gibco, Waltham, MA, USA), supplemented with 10% (v/v) heat-inactivated fetal bovine serum (HIFBS, Sigma-Aldrich, St. Louis, MO, USA)), 2 mM L-glutamine, 100 μg/mL streptomycin, and 100 units/mL penicillin (Gibco, Waltham, MA, USA) at 37 °C in saturated humidity atmosphere containing 95% air and 5% CO2. Cell line HT-29 (human colon carcinoma) was grown in Roswell Park Memorial Institute (RPMI) 1640 medium (Gibco, Whaltman, MA, USA) supplemented with 10% HIFBS, 100 μg/mL streptomycin, and 100 units/mL penicillin (Gibco, Whaltman, MA, USA) at 37 °C in humidified 95% air and 5% CO2 atmosphere. MycoAlert kit (Lonza, Norwest, Australia) was used to routinely check the presence of mycoplasma, and only mycoplasma-free cells were employed in the experiments.
(§2) Cells were plated in 96-well plates (100 µL/well) at the following concentrations: 30,000 cells/mL (HepG2, U87 MG, T98G, C6, LNCaP, PC3, and HT-29 cells) or 15,000 cells/mL (HeLa and MCF-7 cells). Previous experiments were performed to choose the optimal cell concentration (70–80% confluence) and avoid the formation of cell aggregates. Cells were incubated in complete DMEM or RPMI 1640 medium (see above) at 37 °C and 5% CO2 atmosphere for 24 h to allow for cell attachment to the plate. Then, every compound was added (10 µL/well) to a final concentration of 10 µM. Non-treated cells were used as negative controls. The antiproliferative activity of compounds was measured 72 h after the treatments using the MTT reagent (3-[4,5-dimethylthiazol-2-yl]-2,5-diphenyltetrazolium bromide), (MTT Thiazolyl Blue Tetrazolium Bromide, Sigma-Aldrich, St. Louis, MO, USA) dissolved in PBS at 5 mg/mL. Compounds showing antiproliferative effects at 10 µM were selected to determine their IC50 value. For that purpose, compounds were used at different concentrations ranging from 10^−10 to 10^−2 M. Measurements were performed in triplicate, and each experiment was repeated three times. The IC50 value was determined for every compound using Origin software (OriginLab, Washington, USA). To study the sensitivity to MDR efflux pumps of compounds, the IC50 values were determined by following the same procedure but in the presence of verapamil (final concentration of 10 µM).

For the next series, the system named is GL261 cells. The series can be described thus: Cell growth inhibition assay (MTT). The following applies: Mus musculus, GL261, 72 h after drug exposure. The series is classed as cell-based, murine. As for the experimental part:
as §1, §2

Another series has as its system bovine brain tubulin. Nature of the series: Tubulin polymerization inhibition (turbidimetry). The following applies: for IC50: concentration inhibiting 50% of microtubular protein polymerization in vitro, read-out: TPI IC50; for Tubulin polymerization inhibition (in words): 10 µM; for % TPI: compounds tested at 10 µM, with respect to the negative control. Type of series: biochemical. On the procedure:
Microtubular protein was isolated from calf brain following the modified Shelanski method, based on temperature-dependent assembly/disassembly of tubulin [45]. The protein was stored at −80 °C, and its concentration was determined using the Bradford method before each use. Tubulin polymerization, which occurs when heating a buffered tubulin sample from 4 °C to 37 °C, is accompanied by an increase in the absorbance (at 450 nm) of the sample that was monitored by a Helios α spectrophotometer. […] Then, the temperature was adjusted to 4 °C, and the temperature being shifted to 37 °C allowed for the assembly process of tubulin. The turbidity caused by tubulin polymerization was measured by the increased absorbance at 450 nm. The increase in absorbance obtained for the control sample (without the ligand), which we considered to be 100% tubulin polymerization (0% inhibition), compared with the increase in absorbance determined for the sample containing ligands yielded the degree of tubulin polymerization inhibition (TPI), which is expressed as a percentage value. For the compounds displaying TPI values over 50% at 10 µM, the IC50 value for TPI was calculated. Measurements were performed in triplicate in two independent experiments using microtubular protein from different preparations.

Another series has as its system LNCaP cells. The series can be described thus: Cell growth inhibition assay (MTT). Type of series: cell-based, human. The following applies: Homo sapiens, LNCaP, 72 h after drug exposure. On the procedure: as §1, §2
A further series relates to PC-3 cells. The series can be described thus: Cell growth inhibition assay (MTT). Conditions: Homo sapiens, PC-3, 72 h after drug exposure. The series is classed as cell-based, human. On the procedure:
as §1, §2

The subject of series [1] is HT-29 cells. The series can be described thus: Cell growth inhibition assay (MTT). The series is classed as cell-based, human. The following applies: Homo sapiens, HT-29, 72 h after drug exposure. On the procedure: as §1, §2
For the next series, the system named is MCF7 cells. Nature of the series: Cell growth inhibition assay (MTT). The series is classed as cell-based, human. Conditions: Homo sapiens, MCF7; MTT, 72 h after drug exposure. As for the experimental part:
as §1, §2

For the next series, the system named is HeLa cells. Nature of the series: Cell growth inhibition assay (MTT). Conditions: Homo sapiens, HeLa, 72 h after drug exposure. Type of series: cell-based, human. On the procedure: as §1, §2
In another series the test system is HepG2 cells. Nature of the series: Cell growth inhibition assay (MTT). Conditions: Homo sapiens, HepG2, 72 h after drug exposure. Type of series: cell-based, human. On the procedure: as §1, §2
In the next series the test system is T98G cells. The series can be described thus: Cell growth inhibition assay (MTT). The series is classed as cell-based, human. The following applies: Homo sapiens, T98G, 72 h after drug exposure. As for the experimental part: as §1, §2
The next series has as its system U87MG cells. Nature of the series: Cell growth inhibition assay (MTT). Type of series: cell-based, human. The following applies: Homo sapiens, U-87 MG; MTT, 72 h after drug exposure. As for the experimental part:
as §1, §2

A short description of series [2]: Aqueous solubility, shake-flask method. Type of series: physicochemical. The following applies: pH 7.0 buffer, pH 7, aqueous buffer, thermodynamic from solid, shaking flask, buffered media at pH 7.0, mean of three. As for the experimental part:
The aqueous solubility of compounds was measured in a Helios Alfa Spectrophotometer. Calibration lines at the maximum wavelength of absorbance were determined for each compound. Then, following the shake-flask method, a suspension of 5 mg of each compound in 500 µL in pH 7.0 buffer was stirred for 72 h at room temperature. The mixture was then filtrated over a […] filter to remove the insoluble fraction. The concentration of the compound in the resulting saturated solution was determined via UV absorbance measurement and interpolation in the calibration line. The aqueous solubility values are given as the average of three independent measurements.

Series [3] concerns HT-29 cells. Nature of the series: Cell growth inhibition (MTT) in the presence of 10 µM verapamil (sensitivity to MDR efflux pumps). Type of series: cell-based, human. Conditions: 10 µM verapamil (P-gp/MDR1 inhibitor). On the procedure: as §2

Converted amounts (≈) assume the structure as drawn.

As for `COc1ccc(S(=O)(=O)Nc2cccnc2Nc2ccc(O)cc2)cc1` [ABT-751, reference compound], the IC50 in the series with HEK-293 cells came out at 1.23 µM; with GL261 cells it was 0.309 µM; in the series on bovine brain tubulin, 4.4 µM; in the series with LNCaP cells, 0.325 µM; in the series on PC-3 cells it was 0.422 µM; with HT-29 cells [1], 0.213 µM. Moreover, the half-inhibitory concentration (IC50) turned out to be 0.18 µM in the series on MCF7 cells; 0.388 µM with HeLa cells; 0.327 µM with HepG2 cells; 0.421 µM in the series on T98G cells; 0.375 µM with U87MG cells.

`COc1ccc2nc(NCc3[nH]cnc3C)sc2c1` [Compound 4, 6-methoxy-N-((4-methyl-1H-imidazol-5-yl)methyl)benzo[d]thiazol-2-amine] displayed a solubility at 72 h in [2] of 86 µg/mL (≈ 313 µM). Moreover, the IC50 in the series on HEK-293 cells, in the series with GL261 cells, in the series on bovine brain tubulin, in the series on LNCaP cells, in the series with PC-3 cells and in the series on HT-29 cells [1] was above 10 µM throughout. Besides, the IC50 in the series on MCF7 cells was above 10 µM; in the series with HeLa cells, 9.33 µM; in the series on HepG2 cells, above 10 µM; in the series with T98G cells, above 10 µM; in the series with U87MG cells, above 10 µM; with HT-29 cells [3] it was above 10 µM. In addition, the “Tubulin polymerization inhibition (in words)” value with bovine brain tubulin is given as “not able to inhibit tubulin polymerization”. Further, the “% TPI” value in the series with bovine brain tubulin is 0%.

`COc1ccc2nc(NCc3ccccc3)sc2c1` [Compound 5, N-benzyl-6-methoxybenzo[d]thiazol-2-amine]: the solubility at 72 h in series [2] amounted to 5 µg/mL (≈ 18.5 µM). The concentration for half-maximal inhibition (IC50) was above 10 µM in the series with HEK-293 cells; 7.25 µM in the series on GL261 cells; above 10 µM with bovine brain tubulin; 5.97 µM with LNCaP cells; above 10 µM with PC-3 cells; above 10 µM with HT-29 cells [1]. The 50% inhibitory concentration (IC50) is 6.31 µM with MCF7 cells; 4.36 µM with HeLa cells; 5.78 µM with HepG2 cells; above 10 µM in the series with T98G cells; 8.31 µM in the series with U87MG cells; above 10 µM with HT-29 cells [3]. Besides, the “% TPI” value with bovine brain tubulin stood at 0%.

In the case of `COc1ccc2nc(NCc3ccc4ccccc4c3)sc2c1` [Compound 6, 6-methoxy-N-(naphthalen-2-ylmethyl)benzo[d]thiazol-2-amine], the IC50 in the series with HEK-293 cells was above 10 µM; with GL261 cells, 6.25 µM; in the series with bovine brain tubulin, above 10 µM; with LNCaP cells, 4.32 µM; in the series with PC-3 cells, above 10 µM; in the series with HT-29 cells [1], above 10 µM. Moreover, the IC50 was 4.23 µM in the series with MCF7 cells; 3.71 µM in the series on HeLa cells; 4.51 µM in the series on HepG2 cells; above 10 µM in the series with T98G cells; 6.54 µM in the series with U87MG cells; above 10 µM with HT-29 cells [3]. Moreover, in the series on bovine brain tubulin, the “Tubulin polymerization inhibition (in words)” value was “not able to inhibit tubulin polymerization”. Besides, the “% TPI” value in the series on bovine brain tubulin came to 7%.

On to `CC(=O)O[C@@]12CO[C@@H]1C[C@H](O)[C@@]1(C)C(=O)[C@H](O)C3=C(C)[C@@H](OC(=O)[C@H](O)[C@@H](NC(=O)OC(C)(C)C)c4ccccc4)C[C@@](O)([C@@H](OC(=O)c4ccccc4)[C@H]21)C3(C)C` [DTX, docetaxel, reference compound], for which the 50% inhibitory concentration (IC50) was found to be 1.55 µM in the series with HEK-293 cells; 0.035 µM in the series on GL261 cells; 0.01 µM in the series on LNCaP cells; 0.02 µM with PC-3 cells; 0.307 µM in the series on HT-29 cells [1]; 0.013 µM in the series with MCF7 cells. Also, the half-inhibitory concentration (IC50) in the series with HeLa cells was found to be 0.051 µM; in the series on HepG2 cells, 0.055 µM; with T98G cells it was 0.059 µM; in the series with U87MG cells, 0.022 µM.
